Results taken from ChEMBL document CHEMBL1201862, “PubChem BioAssay data set” (2004).
Active and inactive are the calls of the source.

Assays:
Cytochrome P450 3A4 = Cytochrome P450 3A4 (Homo sapiens, UniProt P08684); details: Potency;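 note: confirmatory qHTS run detecting inhibitors and substrates of CYP3A4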
Cytochrome P450 2D6 = Cytochrome P450 2D6 (Homo sapiens, UniProt P10635); experiment: qHTS Assay for Inhibitors and Substrates of Cytochrome P450 2D6. [Related pubchem assays: 410 ]; type: ADME; details: read-out: Potency
Sequence of Cytochrome P450 2D6 (P10635 whole entry): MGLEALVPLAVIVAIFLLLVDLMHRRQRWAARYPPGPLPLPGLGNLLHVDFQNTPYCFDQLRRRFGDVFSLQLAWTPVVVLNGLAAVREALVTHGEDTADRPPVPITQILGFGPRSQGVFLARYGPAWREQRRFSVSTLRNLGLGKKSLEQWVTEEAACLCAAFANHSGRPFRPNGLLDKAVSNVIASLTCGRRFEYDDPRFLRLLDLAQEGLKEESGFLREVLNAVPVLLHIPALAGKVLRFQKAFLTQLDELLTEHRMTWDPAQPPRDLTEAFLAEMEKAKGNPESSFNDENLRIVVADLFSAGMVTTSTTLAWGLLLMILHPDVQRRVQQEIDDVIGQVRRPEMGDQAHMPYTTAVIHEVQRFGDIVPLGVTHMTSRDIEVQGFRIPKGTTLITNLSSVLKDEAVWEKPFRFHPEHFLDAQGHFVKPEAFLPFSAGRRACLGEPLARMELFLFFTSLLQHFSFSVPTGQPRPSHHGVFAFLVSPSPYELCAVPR

[1] = cytotoxicity toward NIH3T3 fibroblasts, dose response, counter-screen, cell-based, ATP luminescence, mouse fibroblasts (AID 2010); type: functional;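 note: cells exposed to compound for about 90 hours before reading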
[2] = molecular target: T1, Microphthalmia-associated transcription factor (Homo sapiens, UniProt O75030); experiment: TRPM1 promoter luciferase signal decrease, dose response, MITF inhibitor project, cell-based, SK-MEL-5, cherry-picked, set 3 (AID 493073); type: functional
T1 sequence (O75030 whole entry): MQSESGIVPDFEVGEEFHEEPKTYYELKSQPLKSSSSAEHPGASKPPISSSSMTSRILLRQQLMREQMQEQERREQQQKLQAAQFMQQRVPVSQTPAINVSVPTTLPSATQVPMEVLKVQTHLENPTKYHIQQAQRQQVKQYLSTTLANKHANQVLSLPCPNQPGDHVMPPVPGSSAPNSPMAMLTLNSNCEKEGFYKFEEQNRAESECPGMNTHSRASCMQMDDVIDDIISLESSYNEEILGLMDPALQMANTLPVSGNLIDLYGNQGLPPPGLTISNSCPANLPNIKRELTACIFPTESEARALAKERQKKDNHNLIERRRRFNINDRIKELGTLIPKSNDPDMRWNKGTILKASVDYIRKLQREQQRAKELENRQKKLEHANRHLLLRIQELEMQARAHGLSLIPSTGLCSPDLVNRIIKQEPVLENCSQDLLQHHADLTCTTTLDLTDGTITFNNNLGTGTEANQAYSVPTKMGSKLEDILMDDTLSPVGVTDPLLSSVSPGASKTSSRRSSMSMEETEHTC

[3] = cytotoxicity in MIN6 insulinoma cells, dose response, cytotoxicity control, cell-based, mouse insulinoma (AID 2122); type: functional;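 note: confirmatory high-throughput counterscreen run to flag cytotoxic compounds; mouse MIN-6 beta cells carrying an insulin promoter eGFP reporter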
[4] = MC4R antagonists, dose response, counter-screen for LGR2 antagonist project, cell-based, plate reader, cherry pick (AID 743444); type: functional;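 note: transfected HEK 293 cells stimulated with alpha-MSH peptide; potency of inhibitors of the alpha-MSH evoked signal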
[5] = molecular target: T2, Sphingosine 1-phosphate receptor 4 (Homo sapiens, UniProt O95977); experiment: Fluorescence dose response cell-based high throughput screening assay for antagonists of the Sphingosine 1-Phosphate Receptor 4 (S1P4). [Related pubchem assays: 1524 (Confirmation in triplicates.), 1510 (Primary screen.)]; type: functional
T2 sequence (O95977 whole entry): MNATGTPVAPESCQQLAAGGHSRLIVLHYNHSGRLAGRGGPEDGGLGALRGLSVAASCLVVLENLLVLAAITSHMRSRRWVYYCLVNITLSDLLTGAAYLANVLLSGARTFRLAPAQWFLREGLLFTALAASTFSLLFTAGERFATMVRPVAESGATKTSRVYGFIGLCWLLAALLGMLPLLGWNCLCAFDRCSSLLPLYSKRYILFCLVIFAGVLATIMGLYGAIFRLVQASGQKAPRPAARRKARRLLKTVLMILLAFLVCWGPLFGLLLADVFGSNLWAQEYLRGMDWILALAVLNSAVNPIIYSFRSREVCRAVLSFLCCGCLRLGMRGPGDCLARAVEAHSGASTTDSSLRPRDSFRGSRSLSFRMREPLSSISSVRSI

Vero [6] = experiment: cells; type: functional, cell-based; details: Chlorocebus sabaeus
[7] = inhibitors of intracellular T. cruzi replication, confirmation, NIH3T3 host cells, beta-gal luminescence (AID 2044); type: functional, cell-based;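 note: intracellular parasites grown in NIH/3T3 mouse fibroblasts as host cells; luminescent beta-galactosidase reporter signal from transgenic T. cruzi replicating inside host cells; inhibitors lower the luminescence signal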
[8] = LGR2 antagonists, dose response, cell-based, HEK293, CRE-luciferase reporter, cherry pick, set 2 (AID 743343); type: functional;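 note: transfected cells were stimulated with diluted bursicon conditioned medium after compound addition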
[9] = HepG2 cell cytotoxicity, dose response, cytotoxicity control, plate reader, cherry-pick, antagonist series (AID 743416); type: functional, cell-based
[10] = insulin promoter down-regulators in MIN6 cells, imaging, high-content screening, mouse beta cells (AID 1628); type: functional
Vero [11] = experiment: cells; type: functional; details: Chlorocebus sabaeus
[12] = HEK293 cell cytotoxicity, dose response, cytotoxicity control, plate reader, cherry-picked samples (AID 743446); type: functional, cell-based
[13] = molecular target: Sphingosine 1-phosphate receptor 1 (Homo sapiens, UniProt P21453); type: functional;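 note: Tango beta-arrestin reporter U2OS cells stimulated with S1P near its EC80; inhibitor potency meaning antagonism of receptor activation by the natural agonist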
Sequence of Sphingosine 1-phosphate receptor 1 (P21453 whole entry): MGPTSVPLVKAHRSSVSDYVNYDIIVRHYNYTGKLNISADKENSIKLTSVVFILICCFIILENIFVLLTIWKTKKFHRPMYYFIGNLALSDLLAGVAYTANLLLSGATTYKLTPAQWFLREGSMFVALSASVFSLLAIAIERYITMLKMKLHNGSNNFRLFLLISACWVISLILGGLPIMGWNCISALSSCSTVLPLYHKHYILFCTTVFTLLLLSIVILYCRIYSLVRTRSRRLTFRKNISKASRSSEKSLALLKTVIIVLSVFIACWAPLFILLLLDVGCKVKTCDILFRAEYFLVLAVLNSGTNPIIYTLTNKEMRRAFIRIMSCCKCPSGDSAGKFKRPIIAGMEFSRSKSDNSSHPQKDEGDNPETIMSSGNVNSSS

[14] = A549 cell cytotoxicity, dose response, cytotoxicity control, plate reader, cherry-pick, antagonist series (AID 743412); type: functional, cell-based
Streptococcus = experiment: Group A Streptococcus viability loss, dose response, counter-screen for streptokinase expression inhibitor project, luminescence, BacTiterGlo (AID 1915); type: functional, organism-based;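 note: potency for reduction of bacterial viability or growth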
[15] = tested on: Streptococcus sp. 'group A'; experiment: growth inhibition of control SK(-) GAS strain, dose response, counter-screen for streptokinase expression inhibitor project, luminescence, kanamycin, BacTiterGlo, confirmation (AID 1900); type: functional, organism-based
Streptokinase A = molecular target: T3, Streptokinase A (Streptococcus pyogenes serotype M1, UniProt P10520); experiment: S. pyogenes streptokinase expression inhibitors, potency, dose response, plasminogen activation absorbance, OD405 (AID 1914); type: functional, Streptococcus pyogenes M1 GAS;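 note: secreted streptokinase activity via plasminogen activation per viability signal from cell pellet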
T3 sequence (P10520 whole entry): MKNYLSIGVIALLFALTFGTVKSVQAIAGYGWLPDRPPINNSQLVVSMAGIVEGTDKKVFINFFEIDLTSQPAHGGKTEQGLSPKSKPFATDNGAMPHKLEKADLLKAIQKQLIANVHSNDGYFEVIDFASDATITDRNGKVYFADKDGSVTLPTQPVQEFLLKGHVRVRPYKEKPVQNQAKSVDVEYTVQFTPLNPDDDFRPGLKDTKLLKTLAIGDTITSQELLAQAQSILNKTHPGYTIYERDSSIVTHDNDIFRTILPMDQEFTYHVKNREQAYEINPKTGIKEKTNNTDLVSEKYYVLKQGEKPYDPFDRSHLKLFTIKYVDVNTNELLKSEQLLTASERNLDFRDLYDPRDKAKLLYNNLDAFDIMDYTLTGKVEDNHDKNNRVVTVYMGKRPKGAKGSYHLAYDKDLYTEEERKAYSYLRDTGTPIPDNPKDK

Estrogen receptor = molecular target: T4, Estrogen receptor (Homo sapiens, UniProt P03372); experiment: potentiators of ERα–SRC-1 coactivator binding, dose response, biochemical, TR-FRET, ERα LBD (AID 737)
T4 sequence (P03372 whole entry): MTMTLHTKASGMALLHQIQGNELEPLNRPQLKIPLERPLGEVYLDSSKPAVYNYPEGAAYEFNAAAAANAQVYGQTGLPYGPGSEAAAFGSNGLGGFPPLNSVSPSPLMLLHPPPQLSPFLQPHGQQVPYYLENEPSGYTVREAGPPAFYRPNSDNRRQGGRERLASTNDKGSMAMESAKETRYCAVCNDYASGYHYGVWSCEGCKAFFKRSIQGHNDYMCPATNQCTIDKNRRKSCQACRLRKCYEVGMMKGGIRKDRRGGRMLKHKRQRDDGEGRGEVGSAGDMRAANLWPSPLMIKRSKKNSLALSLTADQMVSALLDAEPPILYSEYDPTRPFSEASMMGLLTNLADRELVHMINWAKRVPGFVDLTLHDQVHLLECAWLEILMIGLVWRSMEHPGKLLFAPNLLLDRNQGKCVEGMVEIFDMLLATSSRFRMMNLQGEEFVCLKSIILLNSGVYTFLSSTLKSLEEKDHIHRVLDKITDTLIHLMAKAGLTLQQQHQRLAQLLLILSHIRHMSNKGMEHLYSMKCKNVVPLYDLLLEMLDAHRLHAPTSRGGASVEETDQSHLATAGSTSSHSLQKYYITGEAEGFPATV

[16] = molecular target: Sphingosine 1-phosphate receptor 2 (Homo sapiens, UniProt O95136); experiment: Dose Response Cell Based Assay for Agonists of the S1P2 Receptor of Purchased Analogues. [Related pubchem assays: 729, 843, 854, 736 ]; type: functional
Sequence of Sphingosine 1-phosphate receptor 2 (O95136 whole entry): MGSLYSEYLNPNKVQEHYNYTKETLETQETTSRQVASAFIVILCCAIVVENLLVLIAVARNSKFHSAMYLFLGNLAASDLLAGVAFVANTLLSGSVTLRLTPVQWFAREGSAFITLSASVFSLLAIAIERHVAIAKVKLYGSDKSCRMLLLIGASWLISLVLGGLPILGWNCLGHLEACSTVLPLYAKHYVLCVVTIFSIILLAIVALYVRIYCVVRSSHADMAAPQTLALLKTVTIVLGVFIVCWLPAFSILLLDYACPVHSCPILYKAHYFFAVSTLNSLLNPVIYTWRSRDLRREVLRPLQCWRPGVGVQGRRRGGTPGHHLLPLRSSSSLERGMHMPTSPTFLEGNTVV

[17] = molecular target: Lysosomal acid glucosylceramidase (Homo sapiens, UniProt P04062); experiment: Dose response cell-based high throughput screening assay to identify enhancers of beta-glucosidase activity. [Related pubchem assays: 784 ]; type: functional
Sequence of Lysosomal acid glucosylceramidase (P04062 whole entry): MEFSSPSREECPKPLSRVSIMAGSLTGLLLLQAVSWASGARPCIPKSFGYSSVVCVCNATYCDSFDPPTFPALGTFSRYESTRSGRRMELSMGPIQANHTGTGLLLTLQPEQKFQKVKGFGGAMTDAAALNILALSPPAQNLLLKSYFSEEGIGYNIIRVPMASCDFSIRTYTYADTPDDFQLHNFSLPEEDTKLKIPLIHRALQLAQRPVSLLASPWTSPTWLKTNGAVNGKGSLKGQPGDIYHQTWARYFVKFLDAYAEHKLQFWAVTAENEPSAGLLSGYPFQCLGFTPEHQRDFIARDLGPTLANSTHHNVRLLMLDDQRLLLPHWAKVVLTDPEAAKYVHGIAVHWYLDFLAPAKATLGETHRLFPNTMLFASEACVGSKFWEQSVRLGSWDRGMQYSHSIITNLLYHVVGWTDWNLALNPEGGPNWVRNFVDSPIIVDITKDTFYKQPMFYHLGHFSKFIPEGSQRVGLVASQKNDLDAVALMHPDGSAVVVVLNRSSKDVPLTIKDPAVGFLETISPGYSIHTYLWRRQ

[18] = cytotoxicity in HEK-293T cells, dose response, cytotoxicity control for BCR NF-kB inhibitor project, luminescence, B-cell screen hits (AID 489021); type: functional, cell-based;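 note: HEK-293T cells carrying an NF-kB luciferase reporter; cells exposed to compound for about 14 hours before viability readout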
[19] = molecular target: Epstein-Barr nuclear antigen 1 (Epstein-Barr virus (strain B95-8) (HHV-4) (Human herpesvirus 4), UniProt P03211); experiment: EBNA-1 inhibitors, dose response, biochemical, fluorescence polarization, 1536-well (AID 2381); design: species or system human gammaherpesvirus 4;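 note: fluorescence polarization of a Cy5 DNA probe bound by EBNA-1 protein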
Sequence of Epstein-Barr nuclear antigen 1 (P03211 whole entry): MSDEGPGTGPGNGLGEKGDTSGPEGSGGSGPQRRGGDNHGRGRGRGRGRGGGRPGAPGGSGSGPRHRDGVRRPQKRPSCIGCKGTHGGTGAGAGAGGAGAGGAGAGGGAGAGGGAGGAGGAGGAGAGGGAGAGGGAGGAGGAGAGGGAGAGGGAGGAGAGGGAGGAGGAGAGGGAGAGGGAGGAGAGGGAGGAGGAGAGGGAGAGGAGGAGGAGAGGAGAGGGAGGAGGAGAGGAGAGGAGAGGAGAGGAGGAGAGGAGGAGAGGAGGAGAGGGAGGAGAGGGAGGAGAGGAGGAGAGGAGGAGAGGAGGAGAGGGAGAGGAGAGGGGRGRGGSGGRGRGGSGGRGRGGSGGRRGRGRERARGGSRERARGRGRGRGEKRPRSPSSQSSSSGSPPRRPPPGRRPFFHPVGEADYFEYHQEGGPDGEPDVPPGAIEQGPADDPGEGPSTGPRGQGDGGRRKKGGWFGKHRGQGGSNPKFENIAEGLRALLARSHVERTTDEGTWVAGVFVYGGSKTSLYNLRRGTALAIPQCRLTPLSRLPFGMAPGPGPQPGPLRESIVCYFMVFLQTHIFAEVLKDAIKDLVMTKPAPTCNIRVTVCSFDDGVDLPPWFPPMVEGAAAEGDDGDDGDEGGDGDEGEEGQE

[20] = molecular target: Lytic switch protein BZLF1 (Epstein-Barr virus (strain B95-8) (HHV-4) (Human herpesvirus 4), UniProt P03206); experiment: EBV ZTA inhibitors, dose response, counter-screen for EBNA-1 inhibitor project, biochemical, fluorescence polarization, Epstein-Barr virus, 1536-well (AID 2377); design: species or system human gammaherpesvirus 4;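 note: fluorescence polarization of Cy5-labelled ZRE DNA probe bound by purified Zta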
Sequence of Lytic switch protein BZLF1 (P03206 whole entry): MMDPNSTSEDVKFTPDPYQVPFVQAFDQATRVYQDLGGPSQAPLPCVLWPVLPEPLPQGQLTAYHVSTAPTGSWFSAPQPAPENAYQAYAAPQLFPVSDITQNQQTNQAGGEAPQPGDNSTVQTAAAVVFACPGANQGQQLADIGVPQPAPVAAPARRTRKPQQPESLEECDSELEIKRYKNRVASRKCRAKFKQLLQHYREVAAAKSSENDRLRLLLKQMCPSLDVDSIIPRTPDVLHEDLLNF

[21] = inhibitors of Bluetongue virus cytopathic effect, confirmation, arbovirus, BSR cells (AID 1250); type: functional;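 note: protection from viral cytopathic effect measured as cell viability by ATP luminescence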
Oxytocin receptor = Oxytocin receptor (Homo sapiens, UniProt P30559); experiment: Counterscreen for vasopressin 1 receptor (V1R) agonists: Fluorescence-based cell-based high throughput dose response assay for agonists of the Oxytocin Receptor (OXTR). [Related pubchem assays: 2435 (Primary screen (OXTR agonists in singlicate)), 434964 (Confirmation screen (V1R agonists in triplicate)), 434969 (Counterscreen (OXTR agonists in …; type: functional
Sequence of Oxytocin receptor (P30559 whole entry): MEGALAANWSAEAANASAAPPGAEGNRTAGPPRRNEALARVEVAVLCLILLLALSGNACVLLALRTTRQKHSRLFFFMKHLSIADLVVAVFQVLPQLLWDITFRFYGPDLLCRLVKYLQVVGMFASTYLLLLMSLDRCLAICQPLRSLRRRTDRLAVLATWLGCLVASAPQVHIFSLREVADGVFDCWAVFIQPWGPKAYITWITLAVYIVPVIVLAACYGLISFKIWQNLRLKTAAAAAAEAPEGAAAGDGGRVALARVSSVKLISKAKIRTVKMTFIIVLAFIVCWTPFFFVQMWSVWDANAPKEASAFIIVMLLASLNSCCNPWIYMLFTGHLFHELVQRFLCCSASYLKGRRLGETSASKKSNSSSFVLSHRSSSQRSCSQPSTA

Vasopressin V1a receptor = Vasopressin V1a receptor (Homo sapiens, UniProt P37288); experiment: Fluorescence-based cell-based high throughput dose response screening assay for agonists of the vasopressin 1 receptor (V1R).; type: functional
Sequence of Vasopressin V1a receptor (P37288 whole entry): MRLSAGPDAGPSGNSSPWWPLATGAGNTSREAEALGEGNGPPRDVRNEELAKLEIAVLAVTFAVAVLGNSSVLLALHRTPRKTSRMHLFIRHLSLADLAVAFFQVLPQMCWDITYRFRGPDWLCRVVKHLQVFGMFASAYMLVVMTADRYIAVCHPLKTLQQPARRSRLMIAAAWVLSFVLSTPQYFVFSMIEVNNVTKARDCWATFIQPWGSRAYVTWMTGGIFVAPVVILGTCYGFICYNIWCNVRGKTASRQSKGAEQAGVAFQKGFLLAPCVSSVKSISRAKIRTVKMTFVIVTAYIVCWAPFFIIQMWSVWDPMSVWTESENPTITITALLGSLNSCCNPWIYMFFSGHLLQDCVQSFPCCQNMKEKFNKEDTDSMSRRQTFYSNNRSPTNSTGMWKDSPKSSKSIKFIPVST

Sequence of Cytochrome P450 3A4 (P08684 whole entry): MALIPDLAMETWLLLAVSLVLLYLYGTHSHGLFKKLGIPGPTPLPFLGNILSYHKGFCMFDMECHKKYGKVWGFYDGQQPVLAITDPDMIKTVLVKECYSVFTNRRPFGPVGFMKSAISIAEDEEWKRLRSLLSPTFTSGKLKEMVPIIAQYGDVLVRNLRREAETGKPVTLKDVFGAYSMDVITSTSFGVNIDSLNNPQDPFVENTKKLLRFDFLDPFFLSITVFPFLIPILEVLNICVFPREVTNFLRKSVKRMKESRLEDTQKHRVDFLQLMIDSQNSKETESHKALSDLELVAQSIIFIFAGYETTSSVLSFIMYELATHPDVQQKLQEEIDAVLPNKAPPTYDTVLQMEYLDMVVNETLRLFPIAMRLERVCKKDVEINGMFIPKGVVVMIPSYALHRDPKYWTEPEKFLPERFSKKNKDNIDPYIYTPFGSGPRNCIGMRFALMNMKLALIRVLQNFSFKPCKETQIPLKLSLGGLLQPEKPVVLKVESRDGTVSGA

With `CC12C=C(/C=C/c3ccc(C(F)(F)F)cc3)C(C)(C1)C(c1ccc(C(F)(F)F)cc1)CC2=O` (stereo not drawn) the AC50 (Cytochrome P450 3A4) was 3.98 µM (inconclusive) and the AC50 (Cytochrome P450 2D6) was 6.31 µM (inconclusive).
For `O=C(Cn1ncc(Cl)c(Cl)c1=O)N1CCN(Cc2ccccc2)CC1`, the EC50 [1] was 2.06 µM (active), the AC50 [2] was 10.9 µM (active) and the IC50 [3] was 2.16 µM (active). For the same molecule, the AC50 [4] was 34.1 µM (active), the IC50 [5] was 3.5 µM (active) and the IC50 (Vero [6]) was > 25 µM (active). For the same molecule, the EC50 [7] was 2.22 µM (active), the AC50 [8] was 31.5 µM (active) and the AC50 [9] was 17.8 µM (active). The IC50 [10] was 3.08 µM (active), the CC50 (Vero [11]) was 11.3 µM (active) and the AC50 [12] was 7.54 µM (active). For the same molecule, the IC50 [13] was 9.93 µM (active) and the AC50 [14] was 11.1 µM (active).
For `Cn1nnnc1SCC(=O)Nc1nc(-c2ccccc2)c(-c2ccccc2)o1`, the EC50 (Streptococcus) was 26 µM (active), the EC50 [15] was 12.7 µM (active) and the EC50 (Streptokinase A) was > 150 µM (not active). The EC50 (Estrogen receptor) was 22.2 µM (active).
With `CCOC(=O)c1cc(C)n(Cc2ccccc2)c1C` the EC50 [16] was > 30 µM (not active).
With `COCCCNC(=O)Cn1cc(C(=O)C2CC2)c2ccccc21` the EC50 [17] was > 50 µM (not active).
With `COc1ccc(C(=O)Nc2nnc(Cc3cccs3)s2)cc1OC` the IC50 [18] was > 80 µM (inactive), the IC50 [19] was 41.5 µM (not active) and the IC50 [20] was > 111 µM (not active).
For `O=C(Nc1nnc(SCc2ccc(Cl)cc2Cl)s1)C1COc2ccccc2O1` (stereo not drawn), the IC50 [21] was 49 µM (active).
For `CC(NC(=O)Nc1ccc([N+](=O)[O-])cc1)C(c1ccccc1)N1CCOCC1` (stereo not drawn), the EC50 (Oxytocin receptor) was > 29.9 µM (not active) and the EC50 (Vasopressin V1a receptor) was 4.67 µM (active).
